Results reported in patent US20250296971A1, “GASTRIC INHIBITORY PEPTIDE RECEPTOR LIGANDS” (priority 2021, published 2025).
*1 amine or outer side, *2 acyl side, *3 side chain or, on linkers, in order; H or OH if unused. Where a SMILES comes first, the peptide text is derived from it. Bridges are numbered along the chain shown (N, C = ends). Side-chain parts run from the residue outwards. [ ]: non-standard residue; d: D form. The star is where a group is joined. X5 = NC(=O)[C@H](CCCCNC(=O)CN1CCN(CC(=O)O)CCN(CC(=O)O)CCN(CC(=O)O)CC1)NC(=O)CCC(=O)NCCCOCCOCCOCCCN*; X11 = O=C(CN1CCN2CCN3CCN(CC1)CC(=O)[O][In]([O]C(=O)C2)[O]C(=O)C3)NCCCOCCOCCOCCCN*; X3 = O=C(O)CN1CCN(CC(=O)O)CCN(CC(=O)NCCCOCCOCCOCCCN*)CCN(CC(=O)O)CC1; NH(1-deoxy-D-glucityl) = OC[C@@H](O)[C@@H](O)[C@H](O)[C@@H](O)CN*; DOTA = O=C(O)CN1CCN(CC(=O)O)CCN(CC(=O)*)CCN(CC(=O)O)CC1; Propanoyl(3-(1-naphthyl)) = O=C(CCc1cccc2ccccc12)*; Trp(5-Br) = N[C@@H](Cc1c[nH]c2ccc(Br)cc12)C(=O)O; Trp(5-Cl) = N[C@@H](Cc1c[nH]c2ccc(Cl)cc12)C(=O)O; Trp(6-Cl) = N[C@@H](Cc1c[nH]c2cc(Cl)ccc12)C(=O)O; Pyridine(2,6-diCH2) = c1cc(C[*:1])nc(C[*:2])c1; Pro(4R-NH2) = N[C@H]1CN[C@H](C(=O)O)C1; mXylylene = c1cc(C[*:1])cc(C[*:2])c1; Glutaryl = O=C(CCCC(=O)[*:2])[*:1]; X7 = c1cc(CSCCN[*:2])cc(C[*:1])c1; Hyp = O=C(O)[C@@H]1C[C@@H](O)CN1; X1 = O=C(CN1CCC(N[*:1])CC1)[*:2]; pS = N[C@@H](COP(=O)(O)O)C(=O)O; Suc = O=C(CCC(=O)[*:2])[*:1]; αMeS = C[C@](N)(CO)C(=O)O; Api = NC1(C(=O)O)CCNCC1; Thp = NC1(C(=O)O)CCOCC1; AEEA = NCCOCCOCC(=O)O; Aib = CC(C)(N)C(=O)O

These compounds were tested against T1, GIPR (CHO-K1-hGIPR cells) (Homo sapiens, UniProt P48546) (assay: FACS binding assay). Conditions: competition with 20 nM GIP-057, 4° C. for 1 hour, read-out: pIC50 Category (converted).
T1 construct: host or cells: CHO-K1
T1 sequence (P48546 22-466): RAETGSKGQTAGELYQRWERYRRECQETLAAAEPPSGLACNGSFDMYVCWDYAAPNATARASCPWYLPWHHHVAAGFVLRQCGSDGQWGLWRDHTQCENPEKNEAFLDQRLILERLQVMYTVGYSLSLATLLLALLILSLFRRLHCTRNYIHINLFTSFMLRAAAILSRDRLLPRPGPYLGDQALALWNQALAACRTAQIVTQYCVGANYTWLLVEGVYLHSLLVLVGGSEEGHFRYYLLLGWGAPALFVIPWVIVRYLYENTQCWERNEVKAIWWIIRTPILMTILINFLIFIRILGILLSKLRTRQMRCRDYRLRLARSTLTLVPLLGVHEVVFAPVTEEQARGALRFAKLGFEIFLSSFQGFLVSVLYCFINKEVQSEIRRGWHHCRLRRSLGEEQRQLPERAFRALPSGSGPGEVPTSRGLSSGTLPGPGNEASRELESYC
How it was run: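 Read-out: flow cytometric median fluorescence intensity, APC/Cy5 channel, plotted vs peptide conc.; 4PL fit → EC50/pEC50 or IC50/pIC50. Cells: CHO-K1-hGIPR, Accutase-detached, 500.000/mL in PBS + 1% FCS. Detection: APC-streptavidin 1 μg/mL, 30 min, on ice.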

`CC[C@H](C)[C@@H]1NC(=O)[C@H](CC(C)C)NC(=O)C(C)(C)NC(=O)[C@@H](NC(=O)[C@@H](CC(C)C)NC(=O)[C@H](CCC(=O)O)NC(=O)[C@@H]2CCCN2C(=O)[C@H](Cc2c[nH]c3ccccc23)NC(=O)[C@H](Cc2c[nH]c3ccccc23)NC(=O)[C@H](CC(=O)O)NC(=O)CCc2cccc3ccccc23)CSCc2cccc(c2)CSC[C@@H](C(=O)NCCCOCCOCCOCCCNC(=O)CCC(=O)N[C@@H](CCCCNC(=O)CN2CCN(CC(=O)O)CCN(CC(=O)O)CCN(CC(=O)O)CC2)C(N)=O)NC1=O` [GIP-280, Nph1p-Asp-Trp-Trp-Pro-Glu-leu-[Cys(3MeBn)-Aib-Leu-Ile-Cys]-Ttds-Lys(DOTA)-NH2] ({Propanoyl(3-(1-naphthyl))}-DWWPE[dL]C[Aib]LIC-X5; linker 7-11 via mXylylene) and `CC[C@H](C)[C@@H]1NC(=O)[C@H](CC(C)C)NC(=O)[C@@H](C)NC(=O)[C@@H](NC(=O)[C@H](CC(C)C)NC(=O)[C@@H](CCC(=O)O)NC(=O)[C@@H]2CCCN2C(=O)[C@H](Cc2c[nH]c3ccccc23)NC(=O)[C@H](Cc2c[nH]c3ccccc23)NC(=O)[C@H](CC(=O)O)NC(=O)CCC(=O)NCCCOCCOCCOCCCNC(=O)CN2CCN(CC(=O)O)CCN(CC(=O)O)CCN(CC(=O)O)CC2)CSCc2cccc(c2)CSC[C@@H](C(N)=O)NC1=O` [GIP-269, DOTA-Ttds-Asp-Trp-Trp-Pro-glu-Leu-[Cys(3MeBn)-ala-Leu-Ile-Cys]-NH2] ({X3-Suc}-DWWP[dE]LC[dA]LIC-NH2; linker 7-11 via mXylylene) fall in the same range of IC50: 100 to 794 nM for the first, 100 to 794 nM for the second.

First: CC[C@H](C)[C@@H]1NC(=O)[C@H](CC(C)C)NC(=O)C(C)(C)NC(=O)[C@@H](NC(=O)[C@H](CC(C)C)NC(=O)[C@H](CCC(=O)O)NC(=O)[C@@H]2CCCN2C(=O)CCc2cccc3ccccc23)CSCc2cccc(c2)CSC[C@@H](C(=O)NCCCOCCOCCOCCCNC(=O)CCC(=O)N[C@@H](CCCCNC(=O)CN2CCN(CC(=O)O)CCN(CC(=O)O)CCN(CC(=O)O)CC2)C(N)=O)NC1=O [GIP-299, Nph1p-Pro-Glu-Leu-[Cys(3MeBn)-Aib-Leu-Ile-Cys]-Ttds-Lys(DOTA)-NH2] ({Propanoyl(3-(1-naphthyl))}-PELC[Aib]LIC-X5; linker 4-8 via mXylylene)
Second: CC[C@H](C)[C@@H]1NC(=O)[C@H](CC(C)C)NC(=O)[C@H](C)NC(=O)[C@@H](NC(=O)[C@H](CC(C)C)NC(=O)[C@H](CCC(=O)O)NC(=O)[C@@H]2CCCN2C(=O)[C@H](Cc2c[nH]c3ccccc23)NC(=O)[C@H](Cc2c[nH]c3ccccc23)NC(=O)[C@H](CC(=O)O)NC(=O)[C@H](C)NC(=O)[C@@H](N)CCSC)CSCc2cccc(c2)CSC[C@@H](C(N)=O)NC1=O [GIP-249] (H-MADWWPELCALIC-NH2; linker 9-13 via mXylylene)
The IC50 of the first is higher: greater than 1000 nM for the first, 10 to 79.4 nM for the second.

Same assay, conditions: competition with 20 nM GIP-057, 4° C., 1 hour, read-out: pIC50 Category (converted)

`CC[C@H](C)[C@@H]1NC(=O)[C@H](CC(C)C)NC(=O)C2(CCN(C(=O)CCCC(=O)NC[C@H](O)[C@@H](O)[C@H](O)[C@H](O)CO)CC2)NC(=O)[C@@H](NC(=O)[C@@H](CC(C)C)NC(=O)[C@H](CCC(=O)O)NC(=O)[C@@H]2C[C@@H](N)CN2C(=O)[C@H](Cc2c[nH]c3ccc(Cl)cc23)NC(=O)[C@H](Cc2c[nH]c3ccccc23)NC(=O)[C@H](CC(=O)O)NC(=O)COCCOCCNC(=O)[C@@H](CCC(=O)NC[C@H](O)[C@@H](O)[C@H](O)[C@H](O)CO)NC(=O)CN2CCN(CC(=O)O)CCN(CC(=O)O)CCN(CC(=O)O)CC2)CSCc2cccc(n2)CSC[C@@H](C(=O)NC2CCN(CC(=O)N[C@H](CCC(=O)NC[C@H](O)[C@@H](O)[C@H](O)[C@H](O)CO)C(N)=O)CC2)NC1=O` [GIP-009, DOTA-glu(AGLU)-O2Oc-Asp-Trp-5Clw-Tap-Glu-leu-[Cys(2Lut)-Apc(AGLU-Glutar)-Leu-Ile-Cys]-APAc-glu(AGLU)-NH2] ({DOTA}-[dE](NH(1-deoxy-D-glucityl))[AEEA]DW[Trp(5-Cl)][Pro(4R-NH2)]E[dL]C[Api]([Glutaryl-NH(1-deoxy-D-glucityl)])LIC[X1][dE](NH(1-deoxy-D-glucityl))-NH2; linker 9-13 via Pyridine(2,6-diCH2)) and `CC[C@H](C)[C@@H]1NC(=O)[C@H](CC(C)C)NC(=O)C2(CCN(C(=O)CN3CCN(CC(=O)O)CCN(CC(=O)O)CCN(CC(=O)O)CC3)CC2)NC(=O)[C@@H](NC(=O)[C@@H](CC(C)C)NC(=O)[C@H](CCC(=O)O)NC(=O)[C@@H]2C[C@@H](N)CN2C(=O)[C@H](Cc2c[nH]c3ccc(Br)cc23)NC(=O)[C@H](Cc2c[nH]c3ccccc23)NC(=O)[C@H](CC(=O)O)NC(=O)CCCC(=O)NC[C@H](O)[C@@H](O)[C@H](O)[C@H](O)CO)CSCc2cccc(n2)CSC[C@@H](C(=O)NC2CCN(CC(=O)N[C@H](CCC(=O)NC[C@H](O)[C@@H](O)[C@H](O)[C@H](O)CO)C(N)=O)CC2)NC1=O` [GIP-015, AGLU-Glutar-Asp-Trp-5Brw-Tap-Glu-leu-[Cys(2Lut)-Apc(DOTA)-Leu-Ile-Cys]-APAc-glu(AGLU)-NH2] ({NH(1-deoxy-D-glucityl)-Glutaryl}-DW[Trp(5-Br)][Pro(4R-NH2)]E[dL]C[Api](DOTA)LIC[X1][dE](NH(1-deoxy-D-glucityl))-NH2; linker 7-11 via Pyridine(2,6-diCH2)) cannot be ordered by IC50: less than 10 nM for the first, less than 10 nM for the second.

First: CC[C@H](C)[C@@H]1NC(=O)[C@H](CC(C)C)NC(=O)[C@](C)(CO)NC(=O)[C@@H](NC(=O)[C@@H](CC(C)C)NC(=O)[C@H](CCC(=O)O)NC(=O)[C@@H]2CCCN2C(=O)[C@H](Cc2c[nH]c3ccc(Cl)cc23)NC(=O)[C@H](Cc2c[nH]c3ccccc23)NC(=O)[C@H](CC(=O)O)NC(=O)CCC(=O)NCCCOCCOCCOCCCNC(=O)CN2CCN3CCN4CCN(CC2)CC(=O)[O][In]([O]C(=O)C3)[O]C(=O)C4)CSCc2cccc(c2)CSCCNC1=O [GIP-149, InDOTA-Ttds-Asp-Trp-5Clw-Pro-Glu-leu-[Cys(3MeBn)-Ams-Leu-Ile-AET]] ({X11-Suc}-DW[Trp(5-Cl)]PE[dL]C[αMeS]LI; linker 7-C via X7)
Second: CC[C@H](C)[C@@H]1NC(=O)[C@H](CC(C)C)NC(=O)C(C)(C)NC(=O)[C@@H](NC(=O)[C@@H](CC(C)C)NC(=O)[C@H](CCC(=O)O)NC(=O)[C@@H]2CCCN2C(=O)[C@H](Cc2c[nH]c3ccccc23)NC(=O)[C@H](Cc2c[nH]c3cc(Cl)ccc23)NC(=O)[C@H](CC(=O)O)NC(=O)CCC(=O)NCCCOCCOCCOCCCNC(=O)CN2CCN(CC(=O)O)CCN(CC(=O)O)CCN(CC(=O)O)CC2)CSCc2cccc(c2)CSCCNC1=O [GIP-141, DOTA-Ttds-Asp-6Clw-Trp-Pro-Glu-leu-[Cys(3MeBn)-Aib-Leu-Ile-AET]] ({X3-Suc}-D[Trp(6-Cl)]WPE[dL]C[Aib]LI; linker 7-C via X7)
The IC50 of the first is lower: less than 10 nM for the first, 10 to 79.4 nM for the second.

In the case of `CC[C@H](C)[C@@H]1NC(=O)[C@H](CC(C)C)NC(=O)C2(CCOCC2)NC(=O)[C@@H](NC(=O)[C@@H](CC(C)C)NC(=O)[C@H](CCC(=O)O)NC(=O)[C@@H]2C[C@@H](O)CN2C(=O)[C@H](Cc2c[nH]c3ccc(Cl)cc23)NC(=O)[C@H](Cc2c[nH]c3ccccc23)NC(=O)[C@H](COP(=O)(O)O)NC(C)=O)CSCc2cccc(n2)CSC[C@@H](C(N)=O)NC1=O` [GIP-207, Ac-Pse-Trp-5Clw-Hyp-Glu-leu-[Cys(2Lut)-Thp-Leu-Ile-Cys]-NH2] (Ac-[pS]W[Trp(5-Cl)][Hyp]E[dL]C[Thp]LIC-NH2; linker 7-11 via Pyridine(2,6-diCH2)), the IC50 is reported as less than 10 nM.
